Experiments:
293T cells = test: Clonogenic survival assay after BimS transfection, 293T cells; assay type: cell-based, human; set-up: protection of cells from BimS-induced death by the compound alone: dose or concentration left out as unconfirmed; settings: DASA-58 not shown; for effect on the pro-survival effect of IB5 expression: 293T cells cultured in the presence of the compound; for protection of cells from BimS-induced death by the compound alone: without IB5
Protocol: Control 293T or IB5-expressing cells were incubated with or without 27 µg/ml TEPP-46 for 3 h, then transfected with BimS cDNA in a further 24-h incubation also including TEPP-46 or vehicle. The plates were fixed and stained with crystal violet after 1 week. The total area of colonies (a measure of the total mass of proliferating cells) formed in each well from were quantified using ImageJ software; mean±SEM are shown from 3 independent experiments.
Cell viability was measured with a Countess™ Automated Cell Counter (Invitrogen) using trypan blue. For the clonogenic survival assay, 293T or MEFs cells were seeded in 6-well plates at 1×10^5 cells/well in a 2-ml volume, transfected with BimS cDNA and incubated for 24 h. Afterwards, the medium was replaced and the cells cultured for 3-4 days. Thereafter, the plates were rinsed with PBS and fixed and stained with a solution containing crystal violet (0.5% w/v) and glutaraldehyde (6% v/v) as described (Franken et al., 2006).

WT PKM2 [1] = biological target: T1, WT PKM2 (Homo sapiens, UniProt P14618); test: Blue native gel electrophoresis of recombinant proteins, WT PKM2; assay type: binding; settings: blue native gel
T1 construct: His (N); made in house; host or cells: Escherichia coli BL21(DE3)
T1 sequence (P14618 whole entry): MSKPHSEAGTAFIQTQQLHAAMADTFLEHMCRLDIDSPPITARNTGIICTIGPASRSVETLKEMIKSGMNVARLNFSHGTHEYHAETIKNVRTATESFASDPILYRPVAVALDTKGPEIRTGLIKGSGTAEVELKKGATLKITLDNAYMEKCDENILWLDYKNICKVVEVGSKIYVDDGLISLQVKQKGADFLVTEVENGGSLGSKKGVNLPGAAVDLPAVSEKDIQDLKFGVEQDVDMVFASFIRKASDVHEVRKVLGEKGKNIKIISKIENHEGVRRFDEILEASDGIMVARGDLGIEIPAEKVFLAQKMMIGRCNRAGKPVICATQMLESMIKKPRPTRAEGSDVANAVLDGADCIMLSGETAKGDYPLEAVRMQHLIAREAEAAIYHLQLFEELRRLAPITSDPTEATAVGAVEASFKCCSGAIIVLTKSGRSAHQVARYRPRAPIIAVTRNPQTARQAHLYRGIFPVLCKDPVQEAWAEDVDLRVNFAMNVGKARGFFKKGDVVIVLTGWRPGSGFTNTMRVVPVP
Protocol: Left: A monovalent form of scFv 5, produced in E. coli, induced tetramer formation in WT PKM2 along with a bandshift whose magnitude was dependent on the input amount of scFv 5. […] Reaction volume was 20 μl.
(§1) Because glucose metabolism can influence cell survival (Fulda and Debatin, 2007; Moley and Mueckler, 2000; Munoz-Pinedo et al., 2012), The present inventors asked whether IB5 could rescue cells simply through stimulating PKM2's glycolytic activity. First, to analyze the antibody's interaction with PKM2, the present inventors produced monovalent scFv 5 and PIKM2 as recombinant proteins in E. coli and analyzed mixtures of these proteins, by blue native gel electrophoresis (FIG. 3A).

PKM2 (K270M) = biological target: T2, PKM2 (K270M) (Homo sapiens, UniProt P14618, K270M); test: Blue native gel electrophoresis, PKM2 (K270M); assay type: binding; settings: not shown
T2 construct: His (N); made in house; host or cells: Escherichia coli BL21(DE3)
T2 sequence (P14618 whole entry K270M): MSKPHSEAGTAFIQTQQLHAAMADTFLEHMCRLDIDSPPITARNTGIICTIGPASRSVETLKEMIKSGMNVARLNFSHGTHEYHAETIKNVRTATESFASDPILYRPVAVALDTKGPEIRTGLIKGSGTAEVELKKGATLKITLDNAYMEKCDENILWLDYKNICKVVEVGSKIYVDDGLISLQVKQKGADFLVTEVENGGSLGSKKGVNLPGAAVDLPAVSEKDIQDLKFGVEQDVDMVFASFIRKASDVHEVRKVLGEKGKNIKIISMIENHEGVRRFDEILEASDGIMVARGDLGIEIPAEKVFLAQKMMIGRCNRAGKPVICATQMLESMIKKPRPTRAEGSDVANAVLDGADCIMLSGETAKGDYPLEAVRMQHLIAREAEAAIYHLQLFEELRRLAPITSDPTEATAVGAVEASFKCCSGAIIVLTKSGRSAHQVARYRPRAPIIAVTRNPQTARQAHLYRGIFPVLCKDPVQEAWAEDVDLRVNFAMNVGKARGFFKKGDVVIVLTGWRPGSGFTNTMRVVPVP
Description: To begin to define the aspects of PKM2 function required for the IB5-induced anti-apoptotic effect, the present inventors reconstituted PKM2-null MEFs with WT or mutant forms of PKM2. The present inventors first analyzed the K270M mutation, reported to be catalytically dead (Bollenbach et al., 1999; Dombrauckas et al., 2005; Luo et al., 2011).

WT PKM2 [2] = biological target: T1, WT PKM2; test: Pyruvate kinase assay (Kinase-Glo Plus), WT PKM2; assay type: biochemical; settings: PKM2 at 50 nM; ADP and PEP as substrates
Protocol: Activity was measured by Kinase-Glo® Plus Luminescent Kinase Assay kit (promega), using ADP and PEP as substrates), with PKM2 at 50 nM. Shown are values with the basal activity of PKM2 alone subtracted out.
Pyruvate kinase activity was measured by using Kinase-Glo® Plus Luminescent Kinase Assay kit (Promega). 50-100 nM of purified WT or mutant PKM2 was added in 100 μl assay buffer containing 50 mM Tris pH7.5, 100 mM KCl, 10 mM MgCl2, 200 μM PEP, 200 μM ADP, and 3% DMSO. After a 15-min incubation, Kinase-Glo Plus™ reagent (Promega Corporation, Madison, Wis., USA) was added, according to the manufacturer's instructions. In some cases, 0-40 μM fructose 1,6-bisphosphate (FBP) and 0-150 nM scFv 5 were added.

Bcl-2 family proteins = test: Immunoblots of Bcl-2 family proteins; assay type: cell-based, human; settings: alone or in combination; TEPP-46 27 μM
Protocol: Levels of several Bcl-2 family proteins were unchanged following IB5 expression or incubation with TEPP-46, or both. Cell lysates from 293T cells infected with and without IB5 and incubated with and without TEPP-46 (27 μM) were separated on SDS-12% polyacrylamide gels. Bcl-2 family proteins were detected by immunoblotting. The bands were quantified using ImageJ and normalized to the control cell lysate on the leftmost lane.
293T cells were washed with PBS and lysed with PBS containing 1% NP-40. Protein concentration was determined using Pierce™ BCA reagent (ThermoFisher; 23221, 23224). 35 μg protein was loaded in each lane of 12% SDS-PAGE gels. Proteins were transferred to nitrocellulose membrane and immunoblotted with the following primary antibodies: anti-Bax antibody (Santa Cruz N20), anti-Bak antibody (Cell Signaling 3814), anti-Bid antibody (R&D Systems AF860), anti-Bim antibody (Sigma B7929), anti-Puma antibody (Cell Signaling 4976), anti-Bcl-2 antibody (Abcam 32124), anti-Bcl-xL antibody (Cell Signaling 2764) and anti-Mcl-1 (Santa Cruz S19) at 1:1000 dilution. The secondary anti-rabbit and mouse antibodies, conjugated with HRP, were obtained from Santa Cruz and were used at 1:2000 dilution. The luminescence signal was detected using ECL reagent (ThermoFisher 32106).

[3] = biological target: T3, pyruvate kinase M2 (PKM2) (Homo sapiens, UniProt P14618); test: Target protein immunoprecipitation (FLAG pull-down, mass spectrometry, immunoblot); assay type: binding; settings: Triton X-100 extracts of 293T cells, anti-FLAG beads
T3 construct: some intrabodies precipitated specific cellular proteins; endogenous in cells; host or cells: HEK293T (293T)
T3 sequence (P14618 whole entry): as the sequence (P14618 whole entry) above
Protocol: FIG. 1 C is a photograph of a non-limiting SDS-PAGE gel with silver stain from an immunoprecipitation assay using antibodies encoded by DNA sequences isolated from FIG. 1B. […] Intrabodies that rescued cells from BimS-induced death were chosen for pull-down analysis as described in Methods. Left panel: Triton™-X-100 (1%) cell extracts were incubated with anti-FLAG beads, then proteins eluted with 3×FLAG peptide and separated by SDS-PAGE with silver stain. Specific bands are marked with dots; some bands (e.g. at 37 and 70 kD) are nonspecific. […] The bands near 25 kD are the scFv polypeptides, whose expression levels varied.
Flag-tagged intrabody was introduced along with a tandem Strep-tag by PCR into the same lentiviral vector used for selection. 293T cells infected with the intrabody lentivirus were incubated at 30° C. for 72 h as described above. After washing with cold PBS, 5×10^8 cells were lysed for 15 minutes on ice in lysis buffer (50 mM Tris HCl, pH 7.4, 150 mM NaCl, 1 mM EDTA, 1% Triton™ X-100). Cell lysates were clarified by centrifugation for 15 minutes at 4° C. at 16,000×g. The total protein content of the soluble fraction was quantified using the BCA assay. For pull-down experiments, 10 mg of protein lysate was incubated with 200 al of EZview™ Red anti-FLAG® M2 Affini-ty Gel (Sigma-Aldrich) for 2 h at 4° C. Beads were washed 3 times in wash buffer (50 mM Tris HCl, pH 7.4, 150 mM NaCl, 1 mM EDTA, 0.1% Triton X-100). Elution was performed under native conditions by competition with 3×FLAG peptide following the manufacturer's protocol. Eluates were used for the second step purification using Strep-Tactin Superflow Plus™ [Qiagen], following the manufacturer's instructions. The final two-step purified protein was used for SDS-PAGE analysis. Bands of interest were cut out from the gel and subjected to in-gel digestion with trypsin (Promega, Fitchburg, Wis., USA) followed by MALDI TOF/TOF mass spectrometry analysis (Biomolecular and Proteomics Mass Spectrometry Facility, University of California at San Diego).

recombinant PKM1 = biological target: T4, recombinant PKM1 (UniProt P14618-2 1-531); test: in vitro experiments with recombinant proteins (blue native gel bandshift; scFv 5 failed to shift PKM1)
T4 construct: Ran as a constitutive tetramer; also called PIKM1; M1 isoform of pyruvate kinase
T4 sequence (P14618 other isoform, or with tags, fused parts or gaps): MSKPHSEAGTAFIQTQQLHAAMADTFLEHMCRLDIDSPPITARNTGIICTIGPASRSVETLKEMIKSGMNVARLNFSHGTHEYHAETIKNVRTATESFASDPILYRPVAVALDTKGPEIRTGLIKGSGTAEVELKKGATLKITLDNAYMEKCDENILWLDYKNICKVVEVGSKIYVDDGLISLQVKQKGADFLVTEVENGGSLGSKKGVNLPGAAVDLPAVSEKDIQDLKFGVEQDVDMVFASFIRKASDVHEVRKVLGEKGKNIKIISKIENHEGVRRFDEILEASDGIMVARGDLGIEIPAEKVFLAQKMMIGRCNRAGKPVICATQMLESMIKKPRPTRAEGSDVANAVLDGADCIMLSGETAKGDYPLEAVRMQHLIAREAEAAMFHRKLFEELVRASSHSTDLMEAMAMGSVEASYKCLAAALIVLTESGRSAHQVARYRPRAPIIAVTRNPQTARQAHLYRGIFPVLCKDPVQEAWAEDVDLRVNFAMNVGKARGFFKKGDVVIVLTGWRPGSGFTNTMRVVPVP
Description: as §1, with “3A). […] Thus, the intrabody bound directly to PKM2, promoting its stable tetramerization, and moreover, higher input ratios of scFv:PKIM2 produced increased binding stoichiometry.” for “3A).”

Row | Molecule | effect on the pro-survival effect of IB5 expression (293T cells) | protection of cells from BimS-induced death by the compound alone (293T cells) | protein pulled down from cell extracts [3] | other results
1 | Nc1cccc(S(=O)(=O)N2CCCN(S(=O)(=O)c3ccc4c(c3)OCCO4)CC2)c1 [DASA-58] | enhanced the pro-survival effect of IB5 expression to a modest but statistically significant extent | did not protect cells |  | 
2 | O=C(COP(=O)(O)O)[C@@H](O)[C@H](O)[C@H](O)COP(=O)(O)O [FBP, fructose 1,6-bisphosphate, reference compound] |  |  |  | tetramer formation of WT PKM2 (WT PKM2 [1]): produced the tetramer form; stable tetramer formation of PKM2 (K270M) (PKM2 (K270M)): prevented the protein from forming stable tetramers; glycolytic (pyruvate kinase) activity of WT PKM2 (WT PKM2 [2]): Stimulation of PKM2 activity
3 | Cn1c2cc([S+](C)[O-])sc2c2cnn(Cc3cccc(N)c3)c(=O)c21 (centres unmarked) [TEPP-46] | enhanced the pro-survival effect of IB5 expression to a modest but statistically significant extent | did not protect cells |  | levels of Bax, Bak, Bid, Bim, Puma, Bcl-2, Bcl-xL and Mcl-1 (Bcl-2 family proteins): failed to change the mitochondrial levels
4 | IB12: intrabody clone (scFv) that pulls down PKM2, SEQ ID NO: 1 (protein, Artificial intrabody clone 12) scFv: MAQVQLVQSGGGLVKPGGSLRLSCTASGFTFSTYWMHWFRQAPGKGLLWVSRINPDGSATIYADSVKGRFTISRDNAKNSLYLQMNSLRDEDTAVYYCARGHPLSGYPGYFDYWGQGTLVTVSSGGGGSGGGGSGVADPRLCSLSRLPSLHLLEHQQSHLHFTSGINVGAYRIYWYQQKPGSPPQFLLRYKSDSDKQQGSGVPSRFSGSRDASANAGILLISGLRSEDEADYYCAIWHSSAWVFGGGTKLTVLWGSGLASVDYKDDDDK |  |  | pulled down a 55-kD protein now identified as pyruvate kinase M2 | 
5 | monovalent scFv 5 produced as recombinant protein in E. coli (scFv, also called purified scFv 5; recombinant scFv 5) scFv: MAQVQLVETGPGLVKPSETLSLRCTVSGGSFDNYYWNWIRQPPGKGLEYIGYVFPSTGATNYNPSLGSRVTISLDTSKNQFSLTLTSVTTADTAIYYCVRSGHDLWTGSTWFDPWGQWTTVTVSSGGGGSGGGGSGGGGSEIVLTQSPGTLSLSPGERATLSCRASQSVSSSYLAWYQQKPGQAPRLLIYGASSRATGIPDRFSGSGSGTDFTLTISRLEPEDIAVYYCQQRSNWPRTFGQGTKVEIKRGLGGLASVDYKDDDDK |  |  |  | binding result (recombinant PKM1): no binding
6 | Clone 7: independent scFv isolate with DNA sequence identical to scFv 5 (protein) scFv: MAQVQLVETGPGLVKPSETLSLRCTVSGGSFDNYYWNWIRQPPGKGLEYIGYVFPSTGATNYNPSLGSRVTISLDTSKNQFSLTLTSVTTADTAIYYCVRSGHDLWTGSTWFDPWGQWTTVTVSSGGGGSGGGGSGGGGSEIVLTQSPGTLSLSPGERATLSCRASQSVSSSYLAWYQQKPGQAPRLLIYGASSRATGIPDRFSGSGSGTDFTLTISRLEPEDIAVYYCQQRSNWPRTFGQGTKVEIKRGLGGLASVDYKDDDDK |  |  | pulled down a 55-kD protein now identified as pyruvate kinase M2 | 
